Data on 42 compounds can be found in patent US20050043315A1, “Aminopyrimidine compounds, processes for their preparation and pharmaceutical compositions containing them” (priority 2002, published 2005).

Bounds are passed on as bounds.

Consider `CC(C)n1nc(-c2cnc(N)nc2-c2ccc(O)cc2)ccc1=O` (hydrate or solvate) [Example 185, 6-[2-amino-4-(4-hydroxyphenyl)-5-pyrimidinyl]-2-isopropyl-3(2H)-pyridazinone], for which the melting point came out at 246 °C.

In the case of `CC(C)n1nc(-c2cnc(N)nc2-c2ccccc2O)ccc1=O` (hydrate or solvate) [Example 186, 6-[2-Amino-4-(2-hydroxyphenyl)-5-pyrimidinyl]-2-isopropyl-3(2H)-pyridazinone], the melting point came out at 241 °C.

For the compound `CC(C)n1nc(-c2cnc(N)nc2-c2cccc(O)c2)ccc1=O` (hydrate or solvate) [Example 187, 6-[2-Amino-4-(3-hydroxyphenyl)-5-pyrimidinyl]-2-isopropyl-3(2H)-pyridazinone], the melting point was 204 °C.

Regarding `Cn1nc(-c2cnc(N)nc2-c2ccc(O)cc2)ccc1=O` (hydrate or solvate) [Example 223, 6-[2-Amino-4-(4-hydroxyphenyl)-5-pyrimidinyl)-2-methyl-3(2H)-pyridazinone], the melting point amounted to 250 °C.

Compound `Cn1nc(-c2cnc(N)nc2-c2ccccc2O)ccc1=O` (hydrate or solvate) [Example 224, 6-[2-Amino-4-(2-hydroxyphenyl)-5-pyrimidinyl]-2-methyl-3(2H)-pyridazinone] displayed a melting point of 260 °C.

The compound `Cn1nc(-c2cnc(N)nc2-c2cccc(O)c2)ccc1=O` (hydrate or solvate) [Example 225, 6-[2-Amino-4-(3-hydroxyphenyl)-5-pyrimidinyl]-2-methyl-3(2H)-pyridazinone] had a melting point of 285 °C.

The compound `Cn1nc(-c2cnc(N)nc2-c2ccccc2)ccc1=O` [Example 3, 6-(2-Amino-4-phenyl-5-pyrimidinyl)-2-methyl-3(2H)-pyridazinone] had a melting point of 254 to 255 °C.

With `CCCn1nc(-c2cnc(N)nc2-c2ccccc2)ccc1=O` [Example 5, 6-(2-Amino-4-phenyl-5-pyrimidinyl)-2-propyl-3(2H)-pyridazinone], the melting point was 188 to 189 °C.

In the case of `Nc1ncc(-c2ccc(=O)n(Cc3ccccc3)n2)c(-c2ccccc2)n1` [Example 6, 6-(2-Amino-4-phenyl-5-pyrimidinyl)-2-benzyl-3(2H)-pyridazinone], the melting point was in the range of 229 to 230 °C.

On to `CNc1ncc(-c2ccc(=O)[nH]n2)c(-c2ccccc2)n1` [Example 8, 6-[2-(Methylamino)-4-phenyl-5-pyrimidinyl]-3(2H)-pyridazinone], for which the melting point was above 255 °C.

On to `CN(C)c1ncc(-c2ccc(=O)[nH]n2)c(-c2ccccc2)n1` [Example 9, 6-[2-(Dimethylamino)-4-phenyl-5-pyrimidinyl]-3(2H)-pyridazinone], for which the melting point was 245 to 246 °C.

Compound `CNc1ncc(-c2ccc(=O)n(C(C)C)n2)c(-c2ccccc2)n1` [Example 10, 2-Isopropyl-6-[2-(methylamino)-4-phenyl-5-pyrimidinyl]-3(2H)-pyridazinone] registered a melting point of 160 to 161 °C.

`CC(C)n1nc(-c2cnc(N(C)C)nc2-c2ccccc2)ccc1=O` [Example 11, 6-[2-(Dimethylamino)-4-phenyl-5-pyrimidinyl]-2-isopropyl-3(2H)-pyridazinone] yielded a melting point of 155 to 156 °C.

As for `CC(C)n1nc(-c2cnc(N)nc2-c2ccc(F)cc2)ccc1=O` [Example 13, 6-[2-amino-4-(4-fluorophenyl)-5-pyrimidinyl]-2-isopropyl-3(2H)-pyridazinone], the melting point is 238 to 239 °C.

`CC(C)n1nc(-c2cnc(N)nc2-c2ccccc2Br)ccc1=O` [Example 15, 6-[2-Amino-4-(2-bromophenyl)-5-pyrimidinyl]-2-isopropyl-3(2H)-pyridazinone] had a melting point of 203 to 205 °C.

For `CC(C)n1nc(-c2cnc(N3CCOCC3)nc2-c2ccccc2)ccc1=O` [Example 17, 2-isopropyl-6-[2-morpholino-4-phenyl-5-pyrimidinyl]-3(2H)-pyridazinone], the melting point fell in the range of 200.5 to 202 °C.

As for `CC(C)n1nc(-c2cnc(Nc3ccccc3)nc2-c2ccccc2)ccc1=O` [Example 19, 6-(2-Anilino-4-phenyl-5-pyrimidinyl)-2-isopropyl-3(2H)-pyridazinone], the melting point fell in the range of 200 to 202 °C.

In turn, `CC(C)n1nc(-c2cnc(N)nc2-c2ccccc2F)ccc1=O` [Example 20, 6-[2-Amino-4-(2-fluorophenyl)-5-pyrimidinyl]-2-isopropyl-3(2H)-pyridazinone] displayed a melting point of 239 to 240.5 °C.

On to `CC(C)n1nc(-c2cnc(N)nc2-c2cccc(F)c2)ccc1=O` [Example 21, 6-[2-Amino-4-(3-fluorophenyl)-5-pyrimidinyl]-2-isopropyl-3(2H)-pyridazinone], for which the melting point was 220 to 221.5 °C.

`CC(C)n1nc(-c2cnc(N)nc2-c2ccccc2Cl)ccc1=O` [Example 22, 6-[2-Amino-4-(2-chlorophenyl)-5-pyrimidinyl]-2-isopropyl-3(2H)-pyridazinone] yielded a melting point of 227 to 228.5 °C.

`CC(C)n1nc(-c2cnc(N)nc2-c2cccc(Cl)c2)ccc1=O` [Example 23, 6-[2-Amino-4-(3-chlorophenyl)-5-pyrimidinyl]-2-isopropyl-3(2H)-pyridazinone] showed a melting point of 236 to 237 °C.

Compound `CC(C)n1nc(-c2cnc(N)nc2-c2ccccc2C(F)(F)F)ccc1=O` [Example 24, 6-{2-Amino-4-[2-(trifluoromethyl)phenyl]-5-pyrimidinyl}-2-isopropyl-3(2H)-pyridazinone] had a melting point of 160 to 161 °C.

`CC(C)n1nc(-c2cnc(N)nc2-c2cccc(C(F)(F)F)c2)ccc1=O` [Example 25, 6-{2-Amino-4-[3-(trifluoromethyl)phenyl]-5-pyrimidinyl}-2-isopropyl-3(2H)-pyridazinone] gave a melting point of 163.5 to 165 °C.

On to `CC(C)n1nc(-c2cnc(N)nc2-c2ccc(C(F)(F)F)cc2)ccc1=O` [Example 26, 6-{2-Amino-4-[4-(trifluoromethyl)phenyl]-5-pyrimidinyl}-2-isopropyl-3(2H)-pyridazinone], for which the melting point was in the range of 209 to 210.5 °C.

As for `COc1ccc(-c2nc(N)ncc2-c2ccc(=O)[nH]n2)cc1` [Example 27, 6-[2-amino-4-(4-methoxyphenyl)-5-pyrimidinyl]-3(2H)-pyridazinone], the melting point came out at 142 °C.

As for `Nc1ncc(-c2ccc(=O)[nH]n2)c(-c2cccc(F)c2)n1` [Example 28, 6-[2-Amino-4-(3-fluorophenyl)-5-pyrimidinyl]-3(2H)-pyridazinone], the melting point was determined as 249 °C.

With `COc1ccc(-c2nc(N)ncc2-c2ccc(=O)[nH]n2)cc1F` [Example 29, 6-[2-Amino-4-(3-fluoro-4-methoxyphenyl)-5-pyrimidinyl]-3(2H)-pyridazinone], the melting point worked out at 250 °C.

As to `Nc1ncc(-c2ccc(=O)[nH]n2)c(-c2cccnc2)n1` [Example 31, 6-[2-Amino-4-(3-pyridinyl)-5-pyrimidinyl]-3(2H)-pyridazinone], the melting point stood at 256 °C.

`Nc1ncc(-c2ccc(=O)[nH]n2)c(-c2ccco2)n1` [Example 34, 6-[2-Amino-4-(2-furyl)-5-pyrimidinyl]-3(2H)-pyridazinone] had a melting point of 262 to 268 °C.

In turn, `Cc1ccc(-c2nc(N)ncc2-c2ccc(=O)[nH]n2)cc1` [Example 35, 6-[2-Amino-4-(4-methylphenyl)-5-pyrimidinyl]-3(2H)-pyridazinone] registered a melting point of 249 °C.

Turning to `COc1ccc(-c2nc(N)ncc2-c2ccc(=O)[nH]n2)cc1OC` [Example 37, 6-[2-Amino-4-(3,4-dimethoxyphenyl)-5-pyrimidinyl]-3(2H)-pyridazinone], the melting point is 225 °C.

`Nc1ncc(-c2ccc(=O)[nH]n2)c(-c2ccc(Cl)c(Cl)c2)n1` [Example 38, 6-[2-Amino-4-(3,4-dichlorophenyl)-5-pyrimidinyl]-3(2H)-pyridazinone] had a melting point of 300 °C.

With `Cc1ccccc1-c1nc(N)ncc1-c1ccc(=O)[nH]n1` [Example 39, 6-[2-Amino-4-(2-methylphenyl)-5-pyrimidinyl]-3(2H)-pyridazinone], the melting point is 313 °C.

`COc1ccccc1-c1nc(N)ncc1-c1ccc(=O)[nH]n1` [Example 40, 6-[2-Amino-4-(2-methoxyphenyl)-5-pyrimidinyl]-3(2H)-pyridazinone]: the melting point stood at 273 °C.

As to `Nc1ncc(-c2ccc(=O)[nH]n2)c(-c2cccs2)n1` [Example 41, 6-[2-Amino-4-(2-thienyl)-5-pyrimidinyl]-3(2H)-pyridazinone], the melting point was determined as 265 °C.

The compound `Cc1cccc(-c2nc(N)ncc2-c2ccc(=O)[nH]n2)c1` [Example 42, 6-[2-Amino-4-(3-methylphenyl)-5-pyrimidinyl]-3(2H)-pyridazinone] displayed a melting point of 216 °C.

In the case of `COc1cccc(-c2nc(N)ncc2-c2ccc(=O)[nH]n2)c1` [Example 43, 6-[2-Amino-4-(3-methoxyphenyl)-5-pyrimidinyl)-3(2H)-pyridazinone], the melting point was determined as 134 °C.

In turn, `COc1ccc(-c2nc(N)ncc2-c2ccc(=O)n(C(C)C)n2)cc1` [Example 44, 6-[2-amino-4-(4-methoxyphenyl)-5-pyrimidinyl]-2-isopropyl-3(2H)-pyridazinone] returned a melting point of 216.5 °C.

As for `CC(C)n1nc(-c2cnc(N)nc2-c2ccc(Cl)cc2)ccc1=O` [Example 45, 6-[2-Amino-4-(4-chlorophenyl)-5-pyrimidinyl]-2-isopropyl-3(2H)-pyridazinone], the melting point came out at 195 °C.

Consider `COc1ccc(-c2nc(N)ncc2-c2ccc(=O)n(C(C)C)n2)cc1F` [Example 46, 6-[2-Amino-4-(3-fluoro-4-methoxyphenyl)-5-pyrimidinyl]-2-isopropyl-3(2H)-pyridazinone], for which the melting point was 174 °C.

The compound `Cc1ccc(-c2nc(N)ncc2-c2ccc(=O)n(C(C)C)n2)cc1` [Example 48, 6-[2-Amino-4-(4-methylphenyl)-5-pyrimidinyl]-2-isopropyl-3(2H)-pyridazinone] came in with a melting point of 224 °C.

`CC(C)n1nc(-c2cnc(N)nc2-c2ccc(F)c(F)c2)ccc1=O` [Example 49, 6-[2-Amino-4-(3,4-difluorophenyl)-5-pyrimidinyl]-2-isopropyl-3(2H)-pyridazinone] yielded a melting point of 208 °C.

One may read the melting point as the temperature, or range, at which the solid turns liquid.
